From ChEMBL document CHEMBL4715862, “Anti-HIV Tigliane Diterpenoids from Wikstroemia scytophylla” (J Nat Prod, 2020)
pIC50: −log10 of the molar value.

Tests used:
[1] = tested on: Human immunodeficiency virus 1; test: Antiviral activity against HIV-1 NL4-3 infected in human MT4 cells assessed as reduction in p24 gag protein expression incubated for 48 hrs by ELISA; assay type: functional, organism-based; details: Human immunodeficiency virus 1, NL4-3, MT4, 48 h
[2] = Cytotoxicity against human MT4 cells assessed as reduction in cell viability after 48 hrs by CellTiter-Glo assay; assay type: cell-based
[3] = Selectivity ratio of CC50 for cytotoxicity against human MT4 cells to IC50 for antiviral activity against HIV-1 NL4-3 infected in human MT4 cells; assay type: toxicity, cell-based; details: read-out: Ratio CC50/IC50

| SMILES | pIC50 [1] | CC50 at 48 h [2] | selectivity ratio [3] |
| --- | --- | --- | --- |
| CCCCCCCC(=O)O[C@@]12[C@H](OC(=O)c3ccccc3)[C@@H](C)[C@]3(O)[C@@H]4C=C(C)C(=O)[C@@]4(O)[C@H](O)C(CO)=C[C@H]3[C@@H]1C2(C)C | 7.89 | > 164 nM |  |
| CCCCCCCC(=O)O[C@@]12[C@H](OC(=O)c3ccccc3)[C@@H](C)[C@@]3(O)[C@H]([C@@H]1C2(C)C)[C@@H](OO)C(CO)=C[C@]1(O)C(=O)C(C)=C[C@@H]31 |  |  | < 5 |
| CCCCCCCC(=O)O[C@@]12[C@H](OC(=O)c3ccccc3)[C@@H](C)[C@@]3(O)C(=C[C@](O)(CO)C[C@]4(O)C(=O)C(C)=C[C@@H]34)[C@@H]1C2(C)C | < 6.79 | > 164 nM |  |
| CCCCCCCC(=O)O[C@@]12[C@H](OC(=O)CCCCC)[C@@H](C)[C@@]3(O)[C@@H](C(=O)C(CO)=C[C@]4(O)C(=O)C(C)=C[C@@H]34)[C@@H]1C2(C)C | < 6.79 | > 164 nM |  |
| CCCCCCCC(=O)O[C@@]12[C@H](OC(=O)c3ccccc3)[C@@H](C)[C@@]3(O)[C@@H](C(=O)C(CO)=C[C@]4(O)C(=O)C(C)=C[C@@H]34)[C@@H]1C2(C)C | 8.42 | > 164 nM |  |
| CCCCCCCC(=O)O[C@@]12[C@H](OC(=O)c3ccccc3)[C@@H](C)[C@@]3(O)[C@H]([C@@H]1C2(C)C)[C@@H](O)C(CO)=C[C@]1(O)C(=O)C(C)=C[C@@H]31 | < 6.79 | > 164 nM |  |
| C=C(C)[C@]12C[C@@H](COC(=O)c3ccccc3)[C@@]34O[C@]5(O[C@@H]1[C@@H]3[C@@H]1O[C@]1(CO)[C@@H](O)[C@@]1(O)[C@H]4[C@H]([C@H](C)[C@@H]1OC(=O)c1ccccc1)[C@H](C)CCCCCC[C@H]5O)O2 | 10.15 | > 5 nM |  |
